Reference: PubChem BioAssay (NCI)
Where “and” joins values, the source holds several entries; their conditions need not be identical. Identical values can stand only once.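 The compound was tested at five concentrations on cells cultured in 96-well plates, with a 48-hour exposure period. GI50 = concentration required for 50% inhibition of growth. TGI: total growth inhibition.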

Legend:
Assay in all cases: inhibition of tumour cell growth, NCI panel, 48 h
OVCAR-5 ovarian = system: OVCAR-5 ovarian
SR leukemia = system: SR leukemia
OVCAR-4 ovarian = system: OVCAR-4 ovarian
SN12C renal = system: SN12C renal
M14 melanoma = system: M14 melanoma
CAKI-1 renal = system: CAKI-1 renal
NCI-H226 lung = system: NCI-H226 lung
MDA-MB-231 breast = system: MDA-MB-231 breast
HS 578T breast = system: HS 578T breast
HL-60(TB) leukemia = system: HL-60(TB) leukemia

SMILES	TGI (OVCAR-5 ovarian)	TGI (SR leukemia) [µM]	TGI (OVCAR-4 ovarian)	TGI (SN12C renal)	TGI (M14 melanoma)	TGI (CAKI-1 renal)	TGI (NCI-H226 lung)	TGI (MDA-MB-231 breast)	TGI (HS 578T breast)	GI50 (OVCAR-5 ovarian)	GI50 (MDA-MB-231 breast)	GI50 (OVCAR-4 ovarian)	GI50 (SN12C renal)	GI50 (M14 melanoma)	GI50 (HS 578T breast)	GI50 (HL-60(TB) leukemia)	TGI (HL-60(TB) leukemia)	GI50 (CAKI-1 renal)	GI50 (NCI-H226 lung)	GI50 (SR leukemia) [µM]
COc1cccc(NC(=O)CC(=O)N2NC(C)C(N=Nc3cccc(C(=O)O)c3)C2=O)c1 (centres undefined)	> 100 µM	> 100	> 100 µM	> 100 µM	> 100 µM	> 100 µM	> 100 µM	–	–	–	–	–	–	–	–	–	–	–	–	–
CC(=O)OC1CCC2(C)C(=CCC3C2CCC2(C)C(C(C)C(=O)O)CCC32)C1 (centres undefined)	> 100 µM	> 100	> 100 µM	> 100 µM	> 100 µM	> 100 µM	> 100 µM	> 100 µM	> 100 µM	–	–	–	–	–	–	–	–	–	–	–
CCOC(=O)C1=C(C)NC2SC(=O)/C(=C\c3ccccc3)N2C1c1ccccc1 (centres undefined)	> 100 µM	–	> 100 µM	> 100 µM	> 100 µM	> 100 µM	> 100 µM	> 100 µM	> 100 µM	> 100 µM	> 100 µM	78.1 µM	> 100 µM	> 100 µM	> 100 µM	25.6 µM	> 100 µM	> 100 µM	> 100 µM	–
CC(=O)OCC1OC(OC2=C(CC=C(Cl)Cl)C(=O)c3ccccc3C2=O)C(OC(C)=O)C(OC(C)=O)C1OC(C)=O (centres undefined)	28.6 µM	> 100	–	18.7 µM	28 µM	17.6 µM	50.5 µM	5.62 µM	32.2 µM	11.8 µM	2.05 µM	–	5.62 µM	12.6 µM	3.98 µM	–	–	4.91 µM	15.6 µM	3.11
N#CCC(=O)N/N=C1\C(=O)N(c2ccc(Cl)cc2)C(=O)C(=O)C1c1nc2ccccc2o1 (centres undefined)	–	> 100	> 100 µM	> 100 µM	> 100 µM	> 100 µM	> 100 µM	–	–	–	–	–	–	–	–	–	> 100 µM	–	–	–
C[C@H]1CC(=O)C2=CCCC3(SCCCS3)[C@@H]2[C@H]1CO	> 100 µM	> 100	> 100 µM	> 100 µM	> 100 µM	> 100 µM	> 100 µM	–	–	–	–	–	–	–	–	–	> 100 µM	–	–	–
COc1cc2cc[n+]3c4cc(OC)c(OC)cc4c(C)cc3c2cc1OC	> 100 µM	> 100	> 100 µM	> 100 µM	> 100 µM	> 100 µM	> 100 µM	–	–	–	–	–	–	–	–	–	> 100 µM	–	–	–
O=c1c2cc(Br)cc(Br)c2[nH]c(=S)n1-c1ccccc1	> 100 µM	–	> 100 µM	> 100 µM	> 100 µM	> 100 µM	> 100 µM	–	–	–	–	–	–	–	–	–	–	–	–	–
CN(C)CCN=Cc1c2ccccc2c(=O)n2c1oc1ccccc12	30.5 µM	> 100	51.6 µM	17.1 µM	31.2 µM	15.2 µM	36.7 µM	29 µM	–	15.7 µM	12.5 µM	18.4 µM	3.81 µM	15.2 µM	–	10.9 µM	55 µM	3.62 µM	10 µM	3.7
O=c1c2ccccc2c(=O)c2c1cc(Cl)c1[nH]c3c([nH]c12)c(Cl)cc1c(=O)c2ccccc2c(=O)c13	> 100 µM	–	> 100 µM	> 100 µM	> 100 µM	> 100 µM	> 100 µM	–	–	–	–	–	–	–	–	–	> 100 µM	–	–	–
C/C(=N/NC(=O)C(N)=O)C(CC(C(=O)Nc1ccccc1C)/C(C)=N\NC(=O)C(N)=O)C(=O)Nc1ccccc1C (centres undefined)	> 100 µM	–	> 100 µM	> 100 µM	> 100 µM	> 100 µM	> 100 µM	–	–	–	–	–	–	–	–	–	> 100 µM	–	–	–
COc1cc(C2CC(c3cc(C)ccc3C)=NN2c2ccc(S(=O)(=O)NC(=O)NCc3ccccc3)cc2)cc(OC)c1OC (centres undefined)	26.1 µM	–	39.6 µM	18.1 µM	–	19.9 µM	15.6 µM	13.3 µM	7.67 µM	4.19 µM	2.96 µM	3.28 µM	3.15 µM	–	2.68 µM	3.62 µM	11.4 µM	3.17 µM	3.63 µM	–
O=C(O)CCC1(Br)CCCCC(Br)C1=O (centres undefined)	> 100 µM	–	> 100 µM	> 100 µM	> 100 µM	> 100 µM	> 100 µM	–	–	–	–	–	–	–	–	–	> 100 µM	–	–	–
CC[C@H](C)n1cc(C)c2c(C(=O)NCc3c(C)cc(C)[nH]c3=O)cc(-c3ccc(N4CCNCC4)nc3)cc21	30.5 µM and 29.9 µM	–	28.9 µM and 26.4 µM	27.9 µM and 28.6 µM	22.5 µM and 14.3 µM	29.6 µM and 28.8 µM	36.5 µM and 36.9 µM	19.5 µM and 20.5 µM	30.9 µM and 33.1 µM	16.1 µM and 15.3 µM	6.38 µM and 7 µM	13.4 µM and 12.5 µM	13.8 µM and 13.7 µM	9.56 µM and 4.52 µM	13.6 µM and 13.2 µM	24.6 µM and 14.6 µM	41.8 µM and 31.9 µM	16.1 µM and 15.4 µM	16.3 µM and 17.3 µM	–
C=C1Oc2nc3ccccc3c(=O)n2C1(C)C	> 100 µM	–	> 100 µM	> 100 µM	> 100 µM	> 100 µM	> 100 µM	–	–	–	–	–	–	–	–	–	> 100 µM	–	–	–
CC1=C([Se]CC(OC(=O)[C@@H](CO)NC(=O)OC(C)(C)C)C(=O)NC(C)(C)C)C(=O)c2ccccc2C1=O (some centres undefined)	3.73 µM	–	2.49 µM	3.41 µM	3.04 µM	3.39 µM	4.21 µM	3.14 µM	–	2.1 µM	1.62 µM	1.23 µM	1.85 µM	1.66 µM	–	0.87 µM	3.81 µM	1.76 µM	1.96 µM	–
CC(=O)OC1C(CCl)OC(N=[N+]=[N-])C(OC(C)=O)C1OC(C)=O (centres undefined)	–	–	> 100 µM	> 100 µM	> 100 µM	> 100 µM	–	–	–	–	–	–	–	–	–	–	> 100 µM	–	–	–
CC[O-].Cc1ccc2cccc([O-])c2n1.Cc1ccc2cccc([O-])c2n1.Cc1ccc2cccc([O-])c2n1.[Ti+4]	> 100 µM	–	> 68.3 µM	> 100 µM	> 53.5 µM	> 100 µM	> 100 µM	–	–	> 65 µM	–	25 µM	65.3 µM	22.2 µM	–	3.3 µM	16 µM	> 86.6 µM	> 59.6 µM	–
